The subject of one experiment is Huh-7. The experiment in a line: Cytotoxicity against human Huh-7 cells assessed as inhibition of cell growth in presence of 10% fetal bovine serum measured after 48 hrs incubation by MTT assay. The class given is functional, cell-based. As to conditions: Huh-7, 48 h. A general note: Tetrazolium assays rely on reduction of a dye to a coloured formazan, in cell work by metabolically active cells.

In a further experiment the test system is HepG2. The experiment in a line: Cytotoxicity against human HepG2 cells assessed as inhibition of cell growth n presence of 10% fetal bovine serum measured after 48 hrs incubation by MTT assay. Format: functional, cell-based. The following applies: HepG2, 48 h.

Each structure is given as a SMILES string.

As for `COc1c(O)c(C)cc2c(C(C)C)cc(O)c(C=O)c12`, the IC50 with Huh-7 and with HepG2 was over 10 µM in each case.

For `Cc1cc2c(C(C)C)cc(O)c(C=O)c2oc1=O`, the IC50 came to 4 µM in the experiment with Huh-7 and 3.7 µM in the experiment on HepG2.

For `CO[C@@]1(C)C[C@@H]2c3c(coc3C1=O)C(=O)C[C@H]2C(C)C`, the values for the IC50 with Huh-7 and with HepG2 were 6.6 µM and 4.8 µM, respectively.

Turning to `COc1c(C)cc2c(C(C)C)cc(O)c(C=O)c2c1O`, the IC50 in the experiment with Huh-7 and with HepG2 was over 10 µM each time.

For `CC(C)[C@@H]1C=Cc2coc3c2[C@H]1C[C@@H](C)C3=O`, the figures for the IC50 in the experiment on Huh-7 and in the experiment with HepG2 were 6.4 µM and 6.8 µM, respectively.

Usually IC50 stands for the concentration that inhibits the measured activity by half.

Source of the values: ChEMBL document CHEMBL5036364, “Cadinane-Type Sesquiterpenoids with Cytotoxic Activity from the Infected Stems of the Semi-mangrove Hibiscus tiliaceus” (J Nat Prod, 2022).
